One may read the IC50 as the concentration that inhibits the measured activity by half.

In brackets after ≈: the same amount, converted by molar mass.

One assay relates to Mus musculus. As to the kind of experiment: Anti-inflammatory activity against TPA-induced mouse ear edema model assessed as inhibition of ear edema at 1 uM relative to control. More on the design: scale not given: the % may be the effect or the level left. Format: functional.
A further assay deals with Neutrophil. As to the kind of experiment: Inhibition of fMLF/CB-induced human Neutrophil activation assessed as reduction in elastase release using MeO-Suc-Ala-Ala-Pro-Val-pnitroanilide as substrate incubated for 5 mins. It is filed as functional, cell-based.
Assay [1] has as its system RAW264.7. The assay can be described thus: Anti-inflammatory activity in mouse RAW264.7 cells assessed as inhibition of LPS-induced NO production by Griess reagent assay. Format: functional, cell-based.
For assay [2], the system named is RAW264.7. As to the kind of experiment: Anti-inflammatory activity against LPS-stimulated mouse RAW264.7 cells assessed as inhibition of IL-6 expression at 10 uM by qRT-PCR analysis relative to control. Format: functional. More on the design: scale not given: the % may be the effect or the level left.
In assay [3] the test system is BV-2. As to the kind of experiment: Anti-inflammatory activity against mouse BV-2 cells assessed as inhibition of LPS-induced PGE2 production at 50 uM pretreated for 2 hrs followed stimulated with LPS for 22 hrs by ELISA analysis relative to control. Further details: scale not given: the % may be the effect or the level left. It is filed as functional. The settings on record: time 24 hrs. On the technique in general: ELISA stands for enzyme-linked immunosorbent assay.

In assay [4] the test system is THP-1. As to the kind of experiment: Anti-inflammatory activity in human THP-1 cells assessed as inhibition of LPS-stimulated NO production by ELISA analysis. It is filed as functional, cell-based.
In assay [5] the test system is BV-2. As to the kind of experiment: Anti-inflammatory activity against mouse BV-2 cells assessed as inhibition of LPS-induced IL-1beta secretion at 50 uM pretreated for 2 hrs followed stimulated with LPS for 22 hrs by ELISA analysis relative to control. It is filed as functional. Further details: scale not given: the % may be the effect or the level left. The settings on record: time 24 hrs.

The subject of assay [6] is BV-2. The assay can be described thus: Anti-inflammatory activity in mouse BV-2 cells assessed as reduction in LPS-induced NO production. It is filed as functional, cell-based.
Assay [7] relates to RAW264.7. The assay can be described thus: Anti-inflammatory activity in mouse RAW264.7 cells assessed as reduction in LPS-induced NO production by ELISA analysis. It is filed as functional, cell-based.
Assay [8] concerns BV-2. As to the kind of experiment: Anti-inflammatory activity against mouse BV-2 cells assessed as inhibition of LPS-induced PGE2 production pretreated for 2 hrs followed stimulated with LPS for 22 hrs by ELISA analysis. It is filed as functional, cell-based.
Assay [9] relates to BV-2. As to the kind of experiment: Anti-inflammatory activity against mouse BV-2 cells assessed as inhibition of LPS-induced IL-6 at 50 uM pre-treated for 2 hrs followed stimulated with LPS for 22 hrs relative to control. More on the design: scale not given: the % may be the effect or the level left. Conditions: time 24 hrs. Format: functional.
Assay [10] relates to BV-2. As to the kind of experiment: Anti-inflammatory activity against mouse BV-2 cells assessed as inhibition of LPS-induced COX-2 expression at 50 uM pretreated for 2 hrs followed stimulated with LPS for 22 hrs by ELISA analysis relative to control. It is filed as functional. More on the design: scale not given: the % may be the effect or the level left. The settings on record: time 24 hrs.

A further assay concerns HepG2. The assay can be described thus: Anti-inflammatory activity against TNFalpha-induced human HepG2 cells assessed as inhibition of NF-kappaB activity pre-indubated for 1 hr followed by TNFalpha treatment measured for 5 hrs by luciferase based assay. It is filed as functional, cell-based.
The subject of assay [11] is RAW264.7. The assay can be described thus: Anti-inflammatory activity against LPS-stimulated mouse RAW264.7 cells assessed as inhibition of IL-6 expression at 100 uM by qRT-PCR analysis relative to control. It is filed as functional. More on the design: scale not given: the % may be the effect or the level left. (Real-time PCR tracks product formation cycle by cycle.)

In assay [12] the test system is BV-2. The assay can be described thus: Anti-inflammatory activity against mouse BV-2 cells assessed as inhibition of LPS-induced IL-1beta secretion pretreated for 2 hrs followed stimulated with LPS for 22 hrs by ELISA analysis. Format: functional, cell-based.
Assay [13] relates to BV-2. As to the kind of experiment: Anti-inflammatory activity against mouse BV-2 cells assessed as inhibition of LPS-induced COX-2 expression pretreated for 2 hrs followed stimulated with LPS for 22 hrs by ELISA analysis. It is filed as functional, cell-based.
For assay [14], the system named is BV-2. As to the kind of experiment: Anti-inflammatory activity against mouse BV-2 cells assessed as inhibition of LPS-induced IL-6 pre-treated for 2 hrs followed stimulated with LPS for 22 hrs. It is filed as functional, cell-based.
In assay [15] the test system is BV-2. As to the kind of experiment: Antiinflammatory activity in LPS-induced mouse BV-2 cells assessed as reduction in COX-2 protein expression by Western blot analysis. It is filed as functional, cell-based. (In general: A western blot detects proteins with antibodies after separation by electrophoresis.)
Assay [16] concerns RAW264.7. The assay can be described thus: Antiinflammatory activity in LPS-activated mouse RAW264.7 cells assessed as inhibition of ROS production at 10 uM relative to control. Format: functional. Further details: scale not given: the % may be the effect or the level left.
Assay [17] concerns RAW264.7. The assay can be described thus: Anti-inflammatory activity against mouse RAW264.7 cells assessed as inhibition of LPS-induced NO production pre-incubated for 1 hr followed by compound addition and measured after 18 hrs by Griess reagent based analysis. Format: functional, cell-based.
In assay [18] the test system is RAW264.7. As to the kind of experiment: Anti-inflammatory activity against mouse RAW264.7 cells assessed as inhibition of LPS-induced IL-1beta mRNA expression level pretreated for 30 mins followed by LPS-induction and measured after 6 hrs by RT-PCR analysis. It is filed as functional, cell-based.
The test system of another assay is J774.A1. The assay can be described thus: Anti-inflammatory activity against mouse J774.A1 cells assessed as inhibition of LPS-induced IL-1beta mRNA expression level pretreated for 30 mins followed by LPS-induction and measured after 6 hrs by RT-PCR analysis. Format: functional, cell-based.
The next assay deals with B16-F10. The assay can be described thus: Antiinflammatory activity in mouse B16-F10 cells assessed as decrease in LPS-induced TNFalpha expression by Western blot analysis. It is filed as functional, cell-based.
Assay [19] relates to THP-1. As to the kind of experiment: Antiinflammatory activity in human THP-1 cells assessed as decrease in LPS-induced TNFalpha expression by Western blot analysis. Format: functional, cell-based.
The next assay relates to Peritoneal macrophage. The assay can be described thus: Antiinflammatory activity in mouse peritoneal macrophages assessed as reduction in LPS-induced TNFalpha level at 20 uM incubated for 4 hrs by ELISA method relative to control. Format: functional. Further details: scale not given: the % may be the effect or the level left.

Turning to `O=c1c(O)c(-c2ccccc2)oc2cc(O)cc(O)c12` [GALANGIN], in the assay on Mus musculus, the Activity was found to be 27.7%.
Consider `Cc1c(O)cc2c(c1O)C(=O)[C@H](O)[C@@H](c1ccc(O)cc1)O2`, for which the 50% inhibitory concentration (IC50) with Neutrophil was 6 µM.
As for `CC(C)=CCC[C@@]1(C)C=Cc2c(ccc(C(=O)/C=C/c3ccc(O)c(O)c3)c2O)O1`, in the assay with RAW264.7 [1], the IC50 was 22.7 µM.
For the compound `O=c1c(O)c(-c2ccc(O)cc2)oc2cc(O)cc(O)c12` [KAEMPFEROL], the Activity with RAW264.7 [2] stood at 80.7%; in the assay on BV-2 [3], 65.2%; in the assay on BV-2 [5], 53.2%; in the assay with BV-2 [9], 28.1%; with BV-2 [10], 51.4%; in the assay on RAW264.7 [11], 64.5%. In addition, the IC50 was 15.9 µM in the assay with THP-1 [4]; 10.6 µM in the assay with BV-2 [6]; 14.1 µM in the assay on RAW264.7 [7]; 52.4 µM in the assay on BV-2 [8]; 20.5 µM in the assay on HepG2; 80.8 µM with BV-2 [12]. The 50% inhibitory concentration (IC50) with BV-2 [13] worked out at 60.1 µM; with BV-2 [14], 80.8 µM.
Regarding `C=CC(C)(C)c1cc(/C=C/C(=O)c2ccc(O)cc2)c(OC)cc1O` [LICOAGROCHACONE A], the half-inhibitory concentration (IC50) in the assay with BV-2 [15] is 0.625 µg/mL (≈ 1.85 µM). For the same compound, the Activity with RAW264.7 [16] is on record as 80%.
Consider `CC(C)=CCC/C(C)=C/Cc1c(C2CC(=O)c3c(cc(O)c(CC=C(C)C)c3O)O2)ccc(O)c1O` (stereo not given), for which the IC50 with RAW264.7 [17] was 2.4 µM.
As for `COc1cc(O)c(C(=O)/C=C/c2ccccc2)c(O)c1`, the figures for the IC50 in the assay with RAW264.7 [18] and in the assay with J774.A1 were 43.1 µM and 42.8 µM, respectively.
Consider `COc1cc(O)cc(O)c1C(=O)/C=C/c1ccccc1` [CARDAMOMIN], for which the IC50 was determined as 0.6 µM with B16-F10 and 1.1 µM in the assay on THP-1 [19].
Regarding `Oc1cc(O)c2c(c1)O[C@H](c1cc(O)c(O)c(O)c1)CC2`, the Activity with Peritoneal macrophage came out at 22.6%.
